Test results: patent US8871681B2, “Herbicidal compositions comprising 4-amino-3-chloro-5-fluoro-6-(4-chloro-2-fluoro-3-methoxyphenyl) pyridine-2-carboxylic acid or a derivative thereof and certain sulfonylureas” (Dow AgroSciences LLC, priority 2012, dated 2014)

Legend:
[1] = test system: ECHCO (Echinochloa colona, junglerice); test: In-water applied weed control, transplanted paddy rice, greenhouse (Example II); type: in vivo, Echinochloa colona (L.) Link
Method: Weed seeds or nutlets of the desired test plant species were planted in puddled soil (mud) prepared by mixing a shredded, non-sterilized mineral soil (50.5 percent silt, 25.5 percent clay, and 24 percent sand, with a pH of about 7.6 and an organic matter content of about 2.9 percent) and water at a 1:1 volumetric ratio. The prepared mud was dispensed in 365 mL aliquots into 16-ounce (oz.) non-perforated plastic pots with a surface area of 86.59 square centimeters (cm^2) leaving a headspace of 3 centimeters (cm) in each pot. Rice seeds were planted in Sun Gro MetroMix® 306 planting mixture, which typically has a pH of 6.0 to 6.8 and an organic matter content of about 30 percent, in plastic plug trays. Seedlings at the second or third leaf stage of growth were transplanted into 860 mL of mud contained in 32-oz. non-perforated plastic pots with a surface area of 86.59 cm^2 4 days prior to herbicide application. The paddy was created by filling the headspace of the pots with 2.5 to 3 cm of water. When required to ensure good germination and healthy plants, a fungicide treatment and/or other chemical or physical treatment was applied. The plants were grown for 4-22 days in a greenhouse with an approximate 14 h photoperiod which was maintained at about 29′C during the day and 26° C. during the night. Nutrients were added as Osmocote® (19:6:12, N:P:K+minor nutrients) at 2 g per 16-oz. pot and 4 g per 32-oz. pot. Water was added on a regular basis to maintain the paddy flood, and supplemental lighting was provided with overhead metal halide 1000-Watt lamps as necessary. The plants were employed for testing when they reached the first through fourth true leaf stage.
Treatments consisted of the acid or esters of 4-amino-3-chloro-5-fluoro-6-(4-chloro-2-fluoro-3-methoxy-phenyl)pyridine-2-carboxylic acid (compound A) each formulated as an SC and various herbicidal components alone and in combination. Forms of compound A were applied on an acid equivalent basis.
Other herbicidal components were applied on an active ingredient basis and included acetolactate synthase (ALS)-inhibiting herbicides (sulfonylurea chemical class), azimsulfuron formulated as Gulliver®, bensulfuron-methyl formulated as Londax® 60DF, cyclosulfamuron (technical grade materail), ethoxysulfuron formulated as Sunrice® 15 WDG, flucetosulfuron formulated as Sukedachi® 1KG G, imazosulfuron formulated as Brazzos®, metsulfuron-methyl formulated as Lorate®, nicosulfuron formulated as Accent®, orthosulfamuron formulated as Strada® WG, propyrisulfuron formulated as Zeta One®, and rimsulfuron formulated as Matrix® WG.
Treatment requirements for each compound or herbicidal component were calculated based upon the rates being tested, the concentration of active ingredient or acid equivalent in the formulation, an application volume of 2 mL per component per pot, and an application area of 86.59 cm^2 per pot.
For formulated compounds, a measured amount was placed in an individual 100 or 200 mL glass vial and was dissolved in a volume of 1.25% (v/v) Agri-Dex® crop oil concentrate to obtain application solutions.
For technical grade compounds, a weighed amount was placed in an individual 100 to 200 mL glass vial and was dissolved in a volume of acetone to obtain concentrated stock solutions. […] The concentrated stock solutions obtained were diluted with an equivalent volume of an aqueous mixture containing 2.5% (v/v) crop oil concentrate so that the final application solutions contained 1.25% (v/v) crop oil concentrate.
Applications were made by injecting with a pipetter appropriate amounts of the application solutions, individually and sequentially, into the aqueous layer of the paddy. Control plants were treated in the same manner with the solvent blank. Applications were made so that all treated plant material received the same concentrations of acetone and crop oil concentrate. […]

[2] = test system: GALAP (Galium aparine, cleavers); test: Post-emergence foliar-applied weed control in cereal crops, greenhouse (Example III); type: in vivo, Galium aparine (L.); conditions: Table 51, after 20-22 days, 8.75 gai/ha alone
Method: Seeds of the desired test plant species were planted in Sun Gro MetroMix® 306 planting mixture, which typically has a pH of 6.0 to 6.8 and an organic matter content of about 30 percent, in plastic pots with a surface area of 103.2 square centimeters (cm^2). When required to ensure good germination and healthy plants, a fungicide treatment and/or other chemical or physical treatment was applied. The plants were grown for 7-36 days in a greenhouse with an approximate 14 hour photoperiod which was maintained at about 18° C. during the day and 17° C. during the night. Nutrients and water were added on a regular basis and supplemental lighting was provided with overhead metal halide 1000-Watt lamps as necessary. […]
Measured aliquot of benzyl ester of 4-amino-3-chloro-5-fluoro-6-(4-chloro-2-fluoro-3-methoxy-phenyl)pyridine-2-carboxylic acid (Compound A) was placed in 25 milliliter (mL) glass vials and diluted in a volume of 1.25% (v/v) Agri-dex crop oil concentrated to obtain stock solutions. […]
The treated plants and control plants were placed in a greenhouse as described above and watered by sub-irrigation to prevent wash-off of the test compounds. After 20-22 days, the condition of the test plants as compared with that of the control plants was determined visually and scored on a scale of 0 to 100 percent where 0 corresponds to no injury and 100 corresponds to complete kill. […]

In the case of `COc1c(Cl)ccc(-c2nc(C(=O)OCc3ccccc3)c(Cl)c(N)c2F)c1F` [Compound A Benzyl Ester], the “Visual Weed Control (%) - 21 DAA ECHCO Obs” value (“Visual Weed Control (%)” for short) ([1]; Table 39, 4.38 gae/ha alone) is reported as 45%, the “Visual Weed Control (%)” value ([1]; Table 39, 8.75 gae/ha alone) is reported as 30% and the “Visual Weed Control (%)” value ([1]; Table 39, 17.5 gae/ha alone) is reported as 95%. For the same molecule, the “Weed Control GALAP Obs” value [2] was 70%.
